Test results as given in patent US20050250801A1, “Method of treating cancer with azaspirane compositions” (priority 2003, published 2005).
Like-named read-outs stand apart in the source and are kept apart here.

Key:
Format in all cases: cell-based
HOP-62 = assay: NCI in vitro SRB assay, Non-Small Cell Lung Cancer; details: for CC50 / GI50: Homo sapiens
Experimental: (§1) An in vitro assay which tested the ability of N,N,-diethyl-8,8-dipropyl-2-azaspiro[4,5]decane-2-propanamine dimaleate (Compound 1) to inhibit the growth of known cancer cell lines was performed by the National Cancer Institute in accordance with standard procedures. See: Lin, Z. X., Hoult, J. R., and Raman, A. Sulphorhodamine B assay for measuring proliferation of a pigmented melanocyte cell line and its application to the evaluation of crude drugs used in the treatment of vitiligo. J Ethnopharmacol. 66: 141-150, 1999. Briefly, selected tumor cell lines were cultured in media containing five different concentrations of Compound 1. After 48 hours of continuous exposure, a sulforhodamine B (SRB) assay was used to estimate cell viability or growth via optical measurements.
(§2) From the measurements, the following values were determined: 1) the concentration of Compound 1 at which a tumor cell growth inhibition of 50% (relative to control) occurs (GI50), 2) the concentration of Compound 1 at which no growth occurs (total growth inhibition, TGI), and 3) the concentration of Compound 1 at which the […] (LC 50). […] FIG. 6 illustrates, graphically, tumor cell growth as a function of Compound 1 concentration of the scanned tumor cell lines.

NCI-H460 = assay: NCI in vitro SRB assay, Non-Small Cell Lung Cancer; details: for CC50 / GI50: Homo sapiens
Experimental: as §1, §2

NCI-H23 = assay: NCI in vitro SRB assay, Non-Small Cell Lung Cancer; details: for CC50 / GI50: Homo sapiens
Experimental: as §1, §2

NCI-H522 = assay: NCI in vitro SRB assay, Non-Small Cell Lung Cancer; details: for CC50 / GI50: Homo sapiens
Experimental: as §1, §2

HOP-92 = assay: NCI in vitro SRB assay, Non-Small Cell Lung Cancer; details: for CC50 / GI50: Homo sapiens
Experimental: as §1, §2

T-47D = assay: NCI in vitro SRB assay, Breast Cancer
Experimental: as §1, §2

MDA-MB-435 = assay: NCI in vitro SRB assay, Breast Cancer; details: for CC50 / GI50: Homo sapiens
Experimental: as §1, §2

HS 578T = assay: NCI in vitro SRB assay, Breast Cancer; details: for CC50 / GI50: Homo sapiens; for CC50: Hs-578T
Experimental: as §1, §2

[1] = HOP-62, Log10 conc -4.0 Moles/L
[2] = HOP-62, Log10 conc -5.0 Moles/L
[3] = HOP-62, Log10 conc -6.0 Moles/L
[4] = HOP-62, Log10 conc -7.0 Moles/L
[5] = HOP-62, Log10 conc -8.0 Moles/L
[6] = NCI-H460, Log10 conc -4.0 Moles/L
[7] = NCI-H460, Log10 conc -5.0 Moles/L
[8] = NCI-H460, Log10 conc -6.0 Moles/L
[9] = NCI-H460, Log10 conc -7.0 Moles/L
[10] = NCI-H460, Log10 conc -8.0 Moles/L
[11] = NCI-H23, Log10 conc -4.0 Moles/L
[12] = NCI-H23, Log10 conc -5.0 Moles/L
[13] = NCI-H23, Log10 conc -6.0 Moles/L
[14] = NCI-H23, Log10 conc -7.0 Moles/L
[15] = NCI-H23, Log10 conc -8.0 Moles/L
[16] = NCI-H522, Log10 conc -4.0 Moles/L
[17] = NCI-H522, Log10 conc -5.0 Moles/L
[18] = NCI-H522, Log10 conc -6.0 Moles/L
[19] = NCI-H522, Log10 conc -7.0 Moles/L
[20] = NCI-H522, Log10 conc -8.0 Moles/L
[21] = HOP-92, Log10 conc -4.0 Moles/L
[22] = HOP-92, Log10 conc -5.0 Moles/L
[23] = HOP-92, Log10 conc -6.0 Moles/L
[24] = HOP-92, Log10 conc -7.0 Moles/L
[25] = HOP-92, Log10 conc -8.0 Moles/L
[26] = MDA-MB-435, Log10 conc -4.0 Moles/L
[27] = MDA-MB-435, Log10 conc -5.0 Moles/L
[28] = MDA-MB-435, Log10 conc -6.0 Moles/L
[29] = MDA-MB-435, Log10 conc -7.0 Moles/L
[30] = MDA-MB-435, Log10 conc -8.0 Moles/L
[31] = HS 578T, Log10 conc -4.0 Moles/L
[32] = HS 578T, Log10 conc -5.0 Moles/L
[33] = HS 578T, Log10 conc -6.0 Moles/L
[34] = HS 578T, Log10 conc -7.0 Moles/L
[35] = HS 578T, Log10 conc -8.0 Moles/L

CCCC1(CCC)CCC2(CCN(CCCN(CC)CC)C2)CC1.O=C(O)/C=C\C(=O)O.O=C(O)/C=C\C(=O)O [Compound 1, N,N,-diethyl-8,8-dipropyl-2-azaspiro[4,5]decane-2-propanamine dimaleate]
Log10 TGI (HOP-62; HOP-62): −5.54
TGI (HOP-62; HOP-62): 2.91 µM
Mean Optical Densities (HOP-62; [1]): 0.090
Percent Growth (HOP-62; [1]): −79%
Mean Optical Densities (HOP-62; [2]): 0.056
Percent Growth (HOP-62; [2]): −87%
Mean Optical Densities (HOP-62; [3]): 0.693
Percent Growth (HOP-62; [3]): 75%
Mean Optical Densities (HOP-62; [4]): 0.757
Percent Growth (HOP-62; [4]): 93%
Mean Optical Densities (HOP-62; [5]): 0.711
Percent Growth (HOP-62; [5]): 80%
CC50 (HOP-62; HOP-62, read-out: LC50): 5.93 µM
CC50 (HOP-62; HOP-62, read-out: Log10 LC50 (converted)): 5.89 µM
GI50 (HOP-62; HOP-62, read-out: GI50): 1.43 µM
GI50 (HOP-62; HOP-62, read-out: Log10 GI50 (converted)): 1.45 µM
CC50 (NCI-H460; NCI-H460, read-out: LC50): 5.08 µM
CC50 (NCI-H460; NCI-H460, read-out: Log10 LC50 (converted)): 5.13 µM
GI50 (NCI-H460; NCI-H460, read-out: GI50): 1.31 µM
GI50 (NCI-H460; NCI-H460, read-out: Log10 GI50 (converted)): 1.32 µM
Log10 TGI (NCI-H460; NCI-H460): −5.59
TGI (NCI-H460; NCI-H460): 2.58 µM
Mean Optical Densities (NCI-H460; [6]): 0.015
Percent Growth (NCI-H460; [6]): −90%
Mean Optical Densities (NCI-H460; [7]): −0.001
Percent Growth (NCI-H460; [7]): −100%
Mean Optical Densities (NCI-H460; [8]): 1.075
Percent Growth (NCI-H460; [8]): 70%
Mean Optical Densities (NCI-H460; [9]): 1.278
Percent Growth (NCI-H460; [9]): 85%
Mean Optical Densities (NCI-H460; [10]): 1.403
Percent Growth (NCI-H460; [10]): 95%
CC50 (NCI-H23; NCI-H23, read-out: LC50): 6.32 µM
CC50 (NCI-H23; NCI-H23, read-out: Log10 LC50 (converted)): 6.31 µM
GI50 (NCI-H23; NCI-H23, read-out: GI50): 1.96 µM
GI50 (NCI-H23; NCI-H23, read-out: Log10 GI50 (converted)): 1.95 µM
Log10 TGI (NCI-H23; NCI-H23): −5.45
TGI (NCI-H23; NCI-H23): 3.52 µM
Mean Optical Densities (NCI-H23; [11]): 0.030
Percent Growth (NCI-H23; [11]): −92%
Mean Optical Densities (NCI-H23; [12]): 0.040
Percent Growth (NCI-H23; [12]): −89%
Mean Optical Densities (NCI-H23; [13]): 0.822
Percent Growth (NCI-H23; [13]): 107%
Mean Optical Densities (NCI-H23; [14]): 0.814
Percent Growth (NCI-H23; [14]): 105%
Mean Optical Densities (NCI-H23; [15]): 0.728
Percent Growth (NCI-H23; [15]): 85%
CC50 (NCI-H522; NCI-H522, read-out: LC50): > 100 µM
CC50 (NCI-H522; NCI-H522, read-out: Log10 LC50 (converted)): > 100 µM
GI50 (NCI-H522; NCI-H522, read-out: GI50): 1.18 µM
GI50 (NCI-H522; NCI-H522, read-out: Log10 GI50 (converted)): 1.17 µM
Log10 TGI (NCI-H522; NCI-H522): −5.22
TGI (NCI-H522; NCI-H522): 6.05 µM
Mean Optical Densities (NCI-H522; [16]): 0.099
Percent Growth (NCI-H522; [16]): −7%
Mean Optical Densities (NCI-H522; [17]): 0.091
Percent Growth (NCI-H522; [17]): −15%
Mean Optical Densities (NCI-H522; [18]): 0.347
Percent Growth (NCI-H522; [18]): 55%
Mean Optical Densities (NCI-H522; [19]): 0.531
Percent Growth (NCI-H522; [19]): 97%
Mean Optical Densities (NCI-H522; [20]): 0.518
Percent Growth (NCI-H522; [20]): 94%
Log10 TGI (HOP-92; HOP-92): −5.41
TGI (HOP-92; HOP-92): 3.92 µM
Mean Optical Densities (HOP-92; [21]): 0.106
Percent Growth (HOP-92; [21]): −87%
Mean Optical Densities (HOP-92; [22]): 0.542
Percent Growth (HOP-92; [22]): −33%
Mean Optical Densities (HOP-92; [23]): 1.227
Percent Growth (HOP-92; [23]): 49%
Mean Optical Densities (HOP-92; [24]): 1.412
Percent Growth (HOP-92; [24]): 71%
Mean Optical Densities (HOP-92; [25]): 1.529
Percent Growth (HOP-92; [25]): 85%
CC50 (HOP-92; HOP-92, read-out: LC50): 20.3 µM
CC50 (HOP-92; HOP-92, read-out: Log10 LC50 (converted)): 20.4 µM
GI50 (HOP-92; HOP-92, read-out: GI50): 0.897 µM
GI50 (HOP-92; HOP-92, read-out: Log10 GI50 (converted)): 0.891 µM
TGI (T-47D): 4.11 µM
GI50 (T-47D; Homo sapiens, T47D): 1.71 µM
Mean Optical Densities (T-47D; Log10 conc -4.0 Moles/L): 0.207
Percent Growth (T-47D; Log10 conc -4.0 Moles/L): −38%
Mean Optical Densities (T-47D; Log10 conc -5.0 Moles/L): 0.164
Percent Growth (T-47D; Log10 conc -5.0 Moles/L): −51%
Mean Optical Densities (T-47D; Log10 conc -6.0 Moles/L): 1.024
Percent Growth (T-47D; Log10 conc -6.0 Moles/L): 81%
Mean Optical Densities (T-47D; Log10 conc -7.0 Moles/L): 1.176
Percent Growth (T-47D; Log10 conc -7.0 Moles/L): 98%
Mean Optical Densities (T-47D; Log10 conc -8.0 Moles/L): 0.837
Percent Growth (T-47D; Log10 conc -8.0 Moles/L): 59%
CC50 (MDA-MB-435; MDA-MB-435, read-out: LC50): 6.19 µM
CC50 (MDA-MB-435; MDA-MB-435, read-out: Log10 LC50 (converted)): 5.89 µM
GI50 (MDA-MB-435; MDA-MB-435, read-out: GI50): 0.267 µM
GI50 (MDA-MB-435; MDA-MB-435 (so in the source), read-out: Log10 GI50 (converted)): 1.78 µM
TGI (MDA-MB-435; MDA-MB-435): 0.807 µM
Log10 TGI (MDA-MB-435; MDA-MB-435 (so in the source)): −5.49
Mean Optical Densities (MDA-MB-435; [26]): 0.244
Percent Growth (MDA-MB-435; [26]): −58%
Mean Optical Densities (MDA-MB-435; [27]): 0.230
Percent Growth (MDA-MB-435; [27]): −61%
Mean Optical Densities (MDA-MB-435; [28]): 0.528
Percent Growth (MDA-MB-435; [28]): −10%
Mean Optical Densities (MDA-MB-435; [29]): 1.517
Percent Growth (MDA-MB-435; [29]): 94%
Mean Optical Densities (MDA-MB-435; [30]): 1.613
Percent Growth (MDA-MB-435; [30]): 104%
TGI (HS 578T; HS 578T): 3.96 µM
Log10 TGI (HS 578T; HS 578T (so in the source)): −6.09
Mean Optical Densities (HS 578T; [31]): 0.264
Percent Growth (HS 578T; [31]): −62%
Mean Optical Densities (HS 578T; [32]): 0.269
Percent Growth (HS 578T; [32]): −61%
Mean Optical Densities (HS 578T; [33]): 1.217
Percent Growth (HS 578T; [33]): 91%
Mean Optical Densities (HS 578T; [34]): 1.258
Percent Growth (HS 578T; [34]): 98%
Mean Optical Densities (HS 578T; [35]): 1.206
Percent Growth (HS 578T; [35]): 89%
CC50 (HS 578T; read-out: LC50): 8.43 µM
CC50 (HS 578T; read-out: Log10 LC50 (converted)): 6.17 µM
GI50 (HS 578T; HS 578T (so in the source), read-out: Log10 GI50 (converted)): 0.269 µM
GI50 (HS 578T; HS 578T, read-out: GI50): 1.86 µM
